Experimental data published in EP4745137A1 (Gluetacs Therapeutics (Shanghai) Co., Ltd., priority 2023, dated 2025).

Tests used:
Format in all cases: cell-based
Details in all cases: 24 hours of compound treatment
IKZF3 = molecular target: T1, IKZF3 (Homo sapiens, UniProt Q96SW2+Q9UKT9); assay: Western-blot assay of substrate protein degradation in hPBMCs, IKZF3
T1 construct: endogenous in cells; host or cells: hPBMCs (Milecell Biotechnologies)

WEE1 = molecular target: T2, WEE1 (Homo sapiens, UniProt P30291+Q96SW2); assay: Western-blot assay of substrate protein degradation in hPBMCs, WEE1
T2 construct: endogenous in cells; host or cells: hPBMCs (Milecell Biotechnologies)
T2 sequence (P30291 whole entry): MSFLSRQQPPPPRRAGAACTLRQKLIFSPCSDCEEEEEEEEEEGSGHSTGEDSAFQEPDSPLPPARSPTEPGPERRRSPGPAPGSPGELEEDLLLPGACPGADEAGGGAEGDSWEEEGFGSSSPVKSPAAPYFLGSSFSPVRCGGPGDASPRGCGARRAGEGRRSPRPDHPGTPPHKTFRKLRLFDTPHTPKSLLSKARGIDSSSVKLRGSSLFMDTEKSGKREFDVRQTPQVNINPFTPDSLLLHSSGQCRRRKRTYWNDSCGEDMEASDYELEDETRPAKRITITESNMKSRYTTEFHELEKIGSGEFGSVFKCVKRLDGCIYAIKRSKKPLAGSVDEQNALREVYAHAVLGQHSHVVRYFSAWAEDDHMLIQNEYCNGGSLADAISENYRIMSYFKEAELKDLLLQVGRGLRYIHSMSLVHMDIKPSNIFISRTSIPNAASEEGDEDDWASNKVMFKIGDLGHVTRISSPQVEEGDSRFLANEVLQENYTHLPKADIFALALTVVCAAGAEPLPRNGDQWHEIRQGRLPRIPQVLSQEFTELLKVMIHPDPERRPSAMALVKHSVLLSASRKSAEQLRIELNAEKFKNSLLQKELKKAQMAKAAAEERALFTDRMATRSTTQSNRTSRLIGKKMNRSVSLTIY
T2 sequence (Q96SW2 whole entry): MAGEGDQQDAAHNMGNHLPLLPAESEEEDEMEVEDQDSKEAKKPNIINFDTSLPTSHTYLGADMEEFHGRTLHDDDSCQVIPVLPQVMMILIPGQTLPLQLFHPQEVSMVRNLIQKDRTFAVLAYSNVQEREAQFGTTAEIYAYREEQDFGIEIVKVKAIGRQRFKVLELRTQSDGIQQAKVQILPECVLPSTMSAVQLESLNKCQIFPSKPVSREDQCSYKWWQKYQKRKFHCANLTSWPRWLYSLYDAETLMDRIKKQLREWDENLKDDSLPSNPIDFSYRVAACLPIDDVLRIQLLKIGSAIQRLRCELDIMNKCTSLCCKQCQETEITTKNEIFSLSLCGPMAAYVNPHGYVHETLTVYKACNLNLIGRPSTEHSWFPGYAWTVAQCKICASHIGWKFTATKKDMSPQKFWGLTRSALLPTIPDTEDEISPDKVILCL
T2 sequence (Q16531 whole entry partner): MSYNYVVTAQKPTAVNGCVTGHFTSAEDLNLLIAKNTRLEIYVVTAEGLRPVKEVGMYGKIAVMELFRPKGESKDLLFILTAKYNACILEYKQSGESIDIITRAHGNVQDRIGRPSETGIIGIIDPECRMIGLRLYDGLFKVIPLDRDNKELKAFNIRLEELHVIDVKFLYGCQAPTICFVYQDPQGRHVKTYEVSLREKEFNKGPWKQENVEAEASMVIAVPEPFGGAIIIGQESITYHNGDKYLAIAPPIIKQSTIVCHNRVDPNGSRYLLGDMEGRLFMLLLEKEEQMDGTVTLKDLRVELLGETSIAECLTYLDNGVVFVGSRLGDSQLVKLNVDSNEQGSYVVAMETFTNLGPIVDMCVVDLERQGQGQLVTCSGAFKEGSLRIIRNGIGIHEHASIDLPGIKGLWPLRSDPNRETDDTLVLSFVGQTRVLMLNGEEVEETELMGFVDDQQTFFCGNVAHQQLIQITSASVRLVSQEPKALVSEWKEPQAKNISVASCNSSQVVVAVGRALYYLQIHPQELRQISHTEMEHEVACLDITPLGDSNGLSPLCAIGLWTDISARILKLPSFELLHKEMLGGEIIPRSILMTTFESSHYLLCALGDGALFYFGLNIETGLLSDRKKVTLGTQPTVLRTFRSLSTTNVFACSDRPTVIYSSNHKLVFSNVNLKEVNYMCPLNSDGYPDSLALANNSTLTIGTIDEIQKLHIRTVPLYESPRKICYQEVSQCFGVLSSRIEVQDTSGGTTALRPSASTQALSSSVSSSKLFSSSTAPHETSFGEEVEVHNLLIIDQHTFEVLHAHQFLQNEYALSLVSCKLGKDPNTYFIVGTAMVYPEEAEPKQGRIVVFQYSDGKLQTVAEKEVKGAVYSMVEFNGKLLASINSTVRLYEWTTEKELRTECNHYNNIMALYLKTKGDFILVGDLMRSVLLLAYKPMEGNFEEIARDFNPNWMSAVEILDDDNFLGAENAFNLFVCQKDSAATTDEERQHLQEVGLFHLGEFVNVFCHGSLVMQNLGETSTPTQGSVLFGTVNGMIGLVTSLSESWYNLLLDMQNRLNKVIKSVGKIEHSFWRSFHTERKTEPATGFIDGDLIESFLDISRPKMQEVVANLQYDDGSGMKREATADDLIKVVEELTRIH

IKZF1 = molecular target: T3, IKZF1 (Homo sapiens, UniProt Q13422+Q96SW2); assay: Western-blot assay of substrate protein degradation in hPBMCs, IKZF1
T3 construct: endogenous in cells; host or cells: hPBMCs (Milecell Biotechnologies)
T3 sequence (Q13422 whole entry): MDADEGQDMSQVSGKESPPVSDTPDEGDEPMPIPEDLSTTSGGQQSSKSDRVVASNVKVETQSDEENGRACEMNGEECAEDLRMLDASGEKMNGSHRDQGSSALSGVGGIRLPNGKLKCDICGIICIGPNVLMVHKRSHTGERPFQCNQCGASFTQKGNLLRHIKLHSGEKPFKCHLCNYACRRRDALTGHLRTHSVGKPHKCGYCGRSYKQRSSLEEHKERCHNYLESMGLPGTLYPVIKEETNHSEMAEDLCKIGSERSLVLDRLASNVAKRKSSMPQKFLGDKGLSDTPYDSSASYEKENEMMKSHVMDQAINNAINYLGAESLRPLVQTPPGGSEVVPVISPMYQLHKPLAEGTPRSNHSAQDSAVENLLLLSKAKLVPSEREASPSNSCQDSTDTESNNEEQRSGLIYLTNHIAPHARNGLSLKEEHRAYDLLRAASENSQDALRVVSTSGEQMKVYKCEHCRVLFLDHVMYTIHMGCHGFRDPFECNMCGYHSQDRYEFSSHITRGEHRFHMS
T3 sequence (Q96SW2 whole entry): as the sequence (Q96SW2 whole entry) above
T3 sequence (Q16531 whole entry partner): as the sequence (Q16531 whole entry partner) above

IKZF2 = molecular target: T4, IKZF2 (Homo sapiens, UniProt Q96SW2+Q9UKS7); assay: Western-blot assay of substrate protein degradation in hPBMCs, IKZF2
T4 construct: endogenous in cells; host or cells: hPBMCs (Milecell Biotechnologies)

GSPT1 = molecular target: T5, GSPT1 (Homo sapiens, UniProt P15170+Q96SW2); assay: Western-blot assay of substrate protein degradation in hPBMCs, GSPT1
T5 construct: endogenous in cells; host or cells: hPBMCs (Milecell Biotechnologies)
T5 sequence (P15170 whole entry): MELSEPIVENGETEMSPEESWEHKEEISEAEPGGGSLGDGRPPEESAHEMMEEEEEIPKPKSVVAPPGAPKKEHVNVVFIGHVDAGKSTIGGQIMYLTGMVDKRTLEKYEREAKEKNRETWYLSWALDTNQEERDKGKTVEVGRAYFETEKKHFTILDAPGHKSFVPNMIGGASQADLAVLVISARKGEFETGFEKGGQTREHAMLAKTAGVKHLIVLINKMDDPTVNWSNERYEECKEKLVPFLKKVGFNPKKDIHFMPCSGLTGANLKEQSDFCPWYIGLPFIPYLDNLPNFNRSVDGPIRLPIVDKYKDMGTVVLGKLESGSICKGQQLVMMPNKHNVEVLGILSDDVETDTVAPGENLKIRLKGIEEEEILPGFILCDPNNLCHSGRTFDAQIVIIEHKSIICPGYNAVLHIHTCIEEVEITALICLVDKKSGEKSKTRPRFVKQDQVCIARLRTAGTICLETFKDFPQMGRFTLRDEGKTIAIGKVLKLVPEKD
T5 sequence (Q96SW2 whole entry): as the sequence (Q96SW2 whole entry) above
T5 sequence (Q16531 whole entry partner): as the sequence (Q16531 whole entry partner) above

CK1α = molecular target: T6, CK1α (Homo sapiens, UniProt P48729+Q96SW2); assay: Western-blot assay of substrate protein degradation in hPBMCs, CK1α
T6 construct: endogenous in cells; host or cells: hPBMCs (Milecell Biotechnologies)
T6 sequence (P48729 whole entry): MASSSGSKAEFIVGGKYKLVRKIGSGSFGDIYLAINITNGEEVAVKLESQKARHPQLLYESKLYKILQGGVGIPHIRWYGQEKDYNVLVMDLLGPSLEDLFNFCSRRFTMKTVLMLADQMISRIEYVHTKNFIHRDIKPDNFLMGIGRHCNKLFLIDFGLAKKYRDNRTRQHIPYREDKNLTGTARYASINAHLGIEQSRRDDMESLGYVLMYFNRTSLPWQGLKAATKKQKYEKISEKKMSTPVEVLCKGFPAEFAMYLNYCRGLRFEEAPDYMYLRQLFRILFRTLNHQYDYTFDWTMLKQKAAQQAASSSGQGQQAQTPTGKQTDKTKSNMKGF
T6 sequence (Q96SW2 whole entry): as the sequence (Q96SW2 whole entry) above
T6 sequence (Q16531 whole entry partner): as the sequence (Q16531 whole entry partner) above

[1] = 50 nM and 500 nM tested (concentration behind the class not stated)
[2] = compounds tested at 50 nM and 500 nM (concentration of the table not stated)

T1 sequence (Q9UKT9 whole entry): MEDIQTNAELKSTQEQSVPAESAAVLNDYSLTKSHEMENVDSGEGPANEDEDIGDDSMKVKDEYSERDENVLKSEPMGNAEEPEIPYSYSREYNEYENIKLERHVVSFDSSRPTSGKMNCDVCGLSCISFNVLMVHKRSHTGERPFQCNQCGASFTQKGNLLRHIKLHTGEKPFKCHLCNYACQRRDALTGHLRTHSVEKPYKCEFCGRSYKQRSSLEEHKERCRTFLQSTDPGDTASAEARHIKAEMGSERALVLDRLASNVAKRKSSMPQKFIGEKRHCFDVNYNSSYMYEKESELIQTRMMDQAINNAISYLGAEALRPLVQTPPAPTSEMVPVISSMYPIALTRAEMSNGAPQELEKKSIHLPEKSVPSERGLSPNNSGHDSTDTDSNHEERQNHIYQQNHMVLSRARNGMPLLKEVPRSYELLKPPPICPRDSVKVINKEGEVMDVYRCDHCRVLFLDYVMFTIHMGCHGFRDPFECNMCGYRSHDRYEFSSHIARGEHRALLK
T1 sequence (Q96SW2 whole entry): as the sequence (Q96SW2 whole entry) above
T1 sequence (Q16531 whole entry partner): as the sequence (Q16531 whole entry partner) above

## O=C1CCC(N2C(=O)c3ccc(CN4CCC(n5c(=O)[nH]c6cc(F)ccc65)CC4)cc3C2=O)C(=O)N1 (stereo not drawn) [GT-06704, 2-(2,6-dioxopiperidin-3-yl)-5-((4-(5-fluoro-2-oxo-2,3-dihydro-1H-benzo[d]imidazol-1-yl)piperidin-1-yl)methyl)isoindoline-1,3-dione]
IKZF3; [1]
  IKZF3 substrate protein remaining %: A (0% ≤ substrate protein remaining % ≤ 80%)
WEE1; [1]
  Weel substrate protein remaining %: B (80%< substrate protein remaining %≤ 100%)
IKZF1; [1]
  IKZF 1 substrate protein remaining %: B (80%< substrate protein remaining %≤ 100%)
IKZF2; [1]
  IKZF2 substrate protein remaining %: B (80%< substrate protein remaining %≤ 100%)
GSPT1; [1]
  GSPT1 substrate protein remaining %: A (0% ≤ substrate protein remaining % ≤ 80%)
CK1α; [1]
  CK1a substrate protein remaining %: B (80%< substrate protein remaining %≤ 100%)

## O=C1CCC(N2C(=O)c3ccc(CN4CCC(c5ccccc5Cl)CC4)cc3C2=O)C(=O)N1 (stereo not drawn) [GT-06371, 5-((4-(2-chlorophenyl)piperidin-1-yl)methyl)-2-(2,6-dioxopiperidin-3-yl)isoindoline-1,3-dione]
IKZF3; [1]
  IKZF3 substrate protein remaining %: B (80%< substrate protein remaining %≤ 100%)
WEE1; [1]
  Weel substrate protein remaining %: B (80%< substrate protein remaining %≤ 100%)
IKZF1; [1]
  IKZF 1 substrate protein remaining %: A (0% ≤ substrate protein remaining % ≤ 80%)
IKZF2; [1]
  IKZF2 substrate protein remaining %: B (80%< substrate protein remaining %≤ 100%)
GSPT1; [1]
  GSPT1 substrate protein remaining %: A (0% ≤ substrate protein remaining % ≤ 80%)
CK1α; [1]
  CK1a substrate protein remaining %: B (80%< substrate protein remaining %≤ 100%)

## O=C1CCC(N2C(=O)c3ccc(CN4CC=C(c5ccnc6cc(F)ccc56)CC4)cc3C2=O)C(=O)N1 (stereo not drawn) [GT-06267, 2-(2,6-dioxopiperidin-3-yl)-5-((4-(7-fluoroquinolin-4-yl)-3,6-dihydropyridin-1(2H)-yl)methyl)isoindoline-1,3-dione]
IKZF3; [2]
  IKZF3 substrate protein remaining %: A (0% ≤ substrate protein remaining % ≤ 80%)
WEE1; [2]
  Weel substrate protein remaining %: A (0% ≤ substrate protein remaining % ≤ 80%)
IKZF1; [2]
  IKZF 1 substrate protein remaining %: B (80%< substrate protein remaining %≤ 100%)
IKZF2; [2]
  IKZF2 substrate protein remaining %: A (0% ≤ substrate protein remaining % ≤ 80%)
GSPT1; [2]
  GSPT1 substrate protein remaining %: A (0% ≤ substrate protein remaining % ≤ 80%)
CK1α; [2]
  CK1a substrate protein remaining %: A (0% ≤ substrate protein remaining % ≤ 80%)

## O=C1CCC(N2C(=O)c3ccc(CN4CC(C5CCOc6cc(F)ccc65)C4)cc3C2=O)C(=O)N1 (stereo not drawn) [GT-06269, 2-(2,6-dioxopiperidin-3-yl)-5-((3-(7-fluorochroman-4-yl)azetidin-1-yl)methyl)isoindoline-1,3-dione]
IKZF3; [2]
  IKZF3 substrate protein remaining %: A (0% ≤ substrate protein remaining % ≤ 80%)
WEE1; [2]
  Weel substrate protein remaining %: B (80%< substrate protein remaining %≤ 100%)
IKZF1; [2]
  IKZF 1 substrate protein remaining %: B (80%< substrate protein remaining %≤ 100%)
IKZF2; [2]
  IKZF2 substrate protein remaining %: A (0% ≤ substrate protein remaining % ≤ 80%)
GSPT1; [2]
  GSPT1 substrate protein remaining %: A (0% ≤ substrate protein remaining % ≤ 80%)
CK1α; [2]
  CK1a substrate protein remaining %: B (80%< substrate protein remaining %≤ 100%)

## Cc1cccc(N2CCN(Cc3ccc4c(c3)C(=O)N(C3CCC(=O)NC3=O)C4=O)CC2)n1 (stereo not drawn) [GT-06522, 2-(2,6-dioxopiperidin-3-yl)-5-((4-(6-methylpyridin-2-yl)piperazin-1-yl)methyl)isoindoline-1,3-dione]
IKZF3; [1]
  IKZF3 substrate protein remaining %: B (80%< substrate protein remaining %≤ 100%)
WEE1; [1]
  Weel substrate protein remaining %: B (80%< substrate protein remaining %≤ 100%)
IKZF1; [1]
  IKZF 1 substrate protein remaining %: B (80%< substrate protein remaining %≤ 100%)
IKZF2; [1]
  IKZF2 substrate protein remaining %: B (80%< substrate protein remaining %≤ 100%)
GSPT1; [1]
  GSPT1 substrate protein remaining %: A (0% ≤ substrate protein remaining % ≤ 80%)
CK1α; [1]
  CK1a substrate protein remaining %: B (80%< substrate protein remaining %≤ 100%)

## O=C1CCC(N2C(=O)c3ccc(CN4CCN(Cc5ccc(C67CC8CC(CC(C8)C6)C7)cc5)CC4)cc3C2=O)C(=O)N1 (stereo not drawn) [GT-06810, 5-((4-(4-((3r,5r,7r)-adamantan-1-yl)benzyl)piperazin-1-yl)methyl)-2-(2,6-dioxopiperidin-3-yl)isoindoline-1,3-dione]
IKZF3; [1]
  IKZF3 substrate protein remaining %: A (0% ≤ substrate protein remaining % ≤ 80%)
WEE1; [1]
  Weel substrate protein remaining %: B (80%< substrate protein remaining %≤ 100%)
IKZF1; [1]
  IKZF 1 substrate protein remaining %: A (0% ≤ substrate protein remaining % ≤ 80%)
IKZF2; [1]
  IKZF2 substrate protein remaining %: A (0% ≤ substrate protein remaining % ≤ 80%)
GSPT1; [1]
  GSPT1 substrate protein remaining %: A (0% ≤ substrate protein remaining % ≤ 80%)
CK1α; [1]
  CK1a substrate protein remaining %: A (0% ≤ substrate protein remaining % ≤ 80%)

## O=C1CCC(N2C(=O)c3ccc(CN4CCN(c5c(F)cncc5Cl)CC4)cc3C2=O)C(=O)N1 (stereo not drawn) [GT-06600, 5-((4-(3-chloro-5-fluoropyridin-4-yl)piperazin-1-yl)methyl)-2-(2,6-dioxopiperidin-3-yl)isoindoline-1,3-dione]
IKZF3; [1]
  IKZF3 substrate protein remaining %: B (80%< substrate protein remaining %≤ 100%)
WEE1; [1]
  Weel substrate protein remaining %: B (80%< substrate protein remaining %≤ 100%)
IKZF1; [1]
  IKZF 1 substrate protein remaining %: B (80%< substrate protein remaining %≤ 100%)
IKZF2; [1]
  IKZF2 substrate protein remaining %: B (80%< substrate protein remaining %≤ 100%)
GSPT1; [1]
  GSPT1 substrate protein remaining %: A (0% ≤ substrate protein remaining % ≤ 80%)
CK1α; [1]
  CK1a substrate protein remaining %: B (80%< substrate protein remaining %≤ 100%)

## O=C1CCC(N2C(=O)c3ccc(CN4CCN(c5ncccc5F)CC4)cc3C2=O)C(=O)N1 (stereo not drawn) [GT-06526, 2-(2,6-dioxopiperidin-3-yl)-5-((4-(3-fluoropyridin-2-yl)piperazin-1-yl)methyl)isoindoline-1,3-dione]
IKZF3; [1]
  IKZF3 substrate protein remaining %: A (0% ≤ substrate protein remaining % ≤ 80%)
WEE1; [1]
  Weel substrate protein remaining %: A (0% ≤ substrate protein remaining % ≤ 80%)
IKZF1; [1]
  IKZF 1 substrate protein remaining %: B (80%< substrate protein remaining %≤ 100%)
IKZF2; [1]
  IKZF2 substrate protein remaining %: A (0% ≤ substrate protein remaining % ≤ 80%)
GSPT1; [1]
  GSPT1 substrate protein remaining %: A (0% ≤ substrate protein remaining % ≤ 80%)
CK1α; [1]
  CK1a substrate protein remaining %: B (80%< substrate protein remaining %≤ 100%)

## O=C1CCC(N2C(=O)c3ccc(CN4CCN(c5ccc(C(F)(F)F)cn5)CC4)cc3C2=O)C(=O)N1 (stereo not drawn) [GT-06531, 2-(2,6-dioxopiperidin-3-yl)-5-((4-(5-(trifluoromethyl)pyridin-2-yl)piperazin-1-yl)methyl)isoindoline-1,3-dione]
IKZF3; [1]
  IKZF3 substrate protein remaining %: B (80%< substrate protein remaining %≤ 100%)
WEE1; [1]
  Weel substrate protein remaining %: B (80%< substrate protein remaining %≤ 100%)
IKZF1; [1]
  IKZF 1 substrate protein remaining %: B (80%< substrate protein remaining %≤ 100%)
IKZF2; [1]
  IKZF2 substrate protein remaining %: B (80%< substrate protein remaining %≤ 100%)
GSPT1; [1]
  GSPT1 substrate protein remaining %: A (0% ≤ substrate protein remaining % ≤ 80%)
CK1α; [1]
  CK1a substrate protein remaining %: B (80%< substrate protein remaining %≤ 100%)

## O=C1CCC(N2C(=O)c3ccc(CN4CCN(c5ncnc6sc(-c7ccccc7)cc56)CC4)cc3C2=O)C(=O)N1 (stereo not drawn) [GT-06310, 2-(2,6-dioxopiperidin-3-yl)-5-((4-(6-phenylthieno[2,3-d]pyrimidin-4-yl)piperazin-1-yl)methyl)isoindoline-1,3-dione]
IKZF3; [1]
  IKZF3 substrate protein remaining %: A (0% ≤ substrate protein remaining % ≤ 80%)
WEE1; [1]
  Weel substrate protein remaining %: B (80%< substrate protein remaining %≤ 100%)
IKZF1; [1]
  IKZF 1 substrate protein remaining %: B (80%< substrate protein remaining %≤ 100%)
IKZF2; [1]
  IKZF2 substrate protein remaining %: A (0% ≤ substrate protein remaining % ≤ 80%)
GSPT1; [1]
  GSPT1 substrate protein remaining %: A (0% ≤ substrate protein remaining % ≤ 80%)
CK1α; [1]
  CK1a substrate protein remaining %: A (0% ≤ substrate protein remaining % ≤ 80%)
